The test system of series [1] is Megoura viciae (vetch aphid). Conditions: in vivo. As for the experimental part: The tests with Megoura viciae were carried out on potted field bean plants (Vicia faba, variety "Saxa") under laboratory conditions. The test animals were transferred to the test plants only after the plants had been treated and the spray coating had dried on. The tests were as a rule evaluated 5 days after the start of the test, calculated from the time at which the test animals were introduced.

Series [2] is classed as physicochemical. The source says: (e) Thin layer chromatography: Three ninhydrin-positive spots, of which, in each case, only one spot corresponds to the substances which is active in the bioautogram, are found in all the solvent systems used which contain acetic acid. This fact could be ascribed to the lability of the antibiotic in acetic acid solution. In neutral solvent systems, only one ninhydrin-positive spot is found in each case.

Nikkomycin: the “mortality of the larvae which had developed normally during the ecdysis stages” value in series [1] is “more than 90%”. In addition, in series [2], the “stability in acetic acid solution” value was “lability”.

The record behind these values is patent US4287186A, “Antibiotics, a process for their preparation and their use as plant protection agents” (Bayer Aktiengesellschaft, priority 1979, dated 1981).
